# Measured values: ChEMBL document CHEMBL5236595, “JDQ443, a Structurally Novel, Pyrazole-Based, Covalent Inhibitor of KRASG12C for the Treatment of Solid Tumors” (J Med Chem, 2022)
# Assays:
# [1] = Drug concentration in human MIA PaCa-2 cells xenografted mouse blood at 100 mg/kg, po after 40 mins; assay type: ADME, organism-based; conditions: whole blood, read-out: Drug uptake
# [2] = tested on: GTPase KRas (Homo sapiens), P01116 [G12C]; test: In vivo target occupancy at KRAS G12C mutant in human MIA PaCa-2 cells xenografted mouse assessed as decrease in free KRAS G12C level at 100 mg/kg, po after 3 hrs; assay type: functional, organism-based
# [3] = molecular target: GTPase KRas (Homo sapiens, UniProt P01116, G12C); test: Inhibition of KRAS G12C mutant in human NCI-H358 cells assessed as reduction in ERK phosphorylation incubated for 6 hrs by MSD assay; assay type: cell-based
# [4] = Aqueous solubility of compound in pH 6.8; assay type: physicochemical; conditions: aqueous medium
# [5] = Half life in human MIA PaCa-2 cells xenografted mouse at 100 mg/kg, po; assay type: ADME, organism-based; conditions: in vivo
# [6] = tested on: GTPase KRas (Homo sapiens), P01116 [G12C]; test: In vivo target occupancy at KRAS G12C mutant in human MIA PaCa-2 cells xenografted mouse assessed as decrease in free KRAS G12C level at 100 mg/kg, po after 24 hrs; assay type: functional, organism-based
# [7] = Lipophilicity, logD of compound at pH 7.4; assay type: physicochemical; conditions: buffer
# [8] = tested on: GTPase KRas (Homo sapiens), P01116 [G12C]; test: Displacement of [acrylamide-2,3-3H2]-N-(3-fluoro-4-(2-methyl-3-(5-methyl-1H- indazole-4-yl)-1H-pyrrolo[ 2,3-b]pyridin-1-yl)-phenyl from KRAS G12C mutant (unknown origin) assessed as ratio of Kinact/Ki by competitive scintillation proximity assay
# [9] = Plasma protein binding in mouse incubated for 6 hrs by LC-MS/MS based rapid equlibrium dialysis method; assay type: ADME, cell-free; conditions: read-out: PPB (converted)
# [10] = molecular target: Cytochrome P450 2D6 (Homo sapiens, UniProt P10635); test: Inhibition of CYP2D6 in human liver microsomes using bufuralol as substrate incubated for 10 to 30 mins in presence of NADPH by LC-MS/MS method; assay type: ADME, Microsome
# [11] = tested on: MIA PaCa-2; test: Antitumor activity against human MIA PaCa-2 cells xenografted in mouse assessed as tumor regression at 10 mg/kg, po; assay type: functional
# [12] = Volume of distribution at steady state in Beagle dog at 0.1 mg/kg, iv measured upto 24 hrs by LC-MS/MS method; assay type: ADME, organism-based, Canis lupus familiaris; conditions: in vivo, read-out: Vdss
# [13] = Solubility of compound in FeSSIF; assay type: ADME
# [14] = tested on: MIA PaCa-2; test: Antitumor activity against human MIA PaCa-2 cells xenografted in mouse assessed as tumor regression at 30 mg/kg, po; assay type: functional
# [15] = AUCinfinity in Beagle dog at 15 mg/kg, po measured upto 24 hrs by LC-MS/MS method; assay type: ADME, organism-based, Canis lupus familiaris; parameters: dose 15 mg/kg, time < 24 hrs, route po; conditions: in vivo
# [16] = tested on: GTPase KRas (Homo sapiens), P01116 [G12C]; test: In vivo target occupancy at KRAS G12C mutant in human MIA PaCa-2 cells xenografted mouse assessed as decrease in […] expression at 30 mg/kg, po after 24 hrs; assay type: functional, organism-based
# [17] = molecular target: Sodium channel protein type 5 subunit alpha (Homo sapiens, UniProt Q14524); test: Inhibition of Nav1.5 (unknown origin)
# [18] = AUCinfinity in mouse at 30 mg/kg, po measured upto 24 hrs by LC-MS/MS method; assay type: ADME, organism-based; parameters: dose 30 mg/kg, time < 24 hrs, route po; conditions: in vivo
# [19] = tested on: NCI-H1437; test: Antiproliferative activity against human NCI-H1437 cells by resazurin assay; assay type: functional
# [20] = Toxicity in mouse xenografted with human MIA PaCa-2 cells assessed as tolerability at 3 to 30 mg/kg, po; assay type: organism-based; conditions: in vivo, dose 3-30 mg/kg
# [21] = Cmax in Beagle dog at 15 mg/kg, po measured upto 24 hrs by LC-MS/MS method; assay type: ADME, organism-based, Canis lupus familiaris; parameters: time < 24 hrs, dose 15 mg/kg, route po; conditions: in vivo
# [22] = Dose normalized AUC in Beagle dog at 15 mg/kg, po measured upto 24 hrs by LC-MS/MS method; assay type: ADME, organism-based, Canis lupus familiaris; conditions: in vivo
# [23] = Cmax in mouse at 30 mg/kg, po measured upto 24 hrs by LC-MS/MS method; assay type: ADME, organism-based; parameters: dose 30 mg/kg, time < 24 hrs, route po; conditions: in vivo
# [24] = molecular target: T1, Cytochrome P450 2C9 (Homo sapiens, UniProt P11712); test: Time dependent inhibition of CYP2C9 in pooled human liver microsomes measured upto 30 mins by LC-MS/MS method; assay type: ADME, Microsome; conditions: 0.5 h
# [25] = Plasma protein binding in rat incubated for 6 hrs by LC-MS/MS based rapid equlibrium dialysis method; assay type: ADME, cell-free; conditions: read-out: PPB (converted)
# [26] = Apparent permeability in human Caco-2 cells; assay type: ADME, cell-based
# [27] = Dose normalized AUC in mouse at 30 mg/kg, po measured upto 24 hrs by LC-MS/MS method; assay type: ADME, organism-based; conditions: in vivo
# [28] = molecular target: T1, Cytochrome P450 2C9; test: Inhibition of CYP2C9 in human liver microsomes using diclofenac as substrate incubated for 10 to 30 mins in presence of NADPH by LC-MS/MS method; assay type: ADME, Microsome
# [29] = molecular target: T2, Cytochrome P450 3A4 (Homo sapiens, UniProt P08684); test: Time dependent inhibition of CYP3A4 in pooled human liver microsomes measured upto 30 mins by LC-MS/MS method; assay type: ADME, Microsome; conditions: 0.5 h
# [30] = tested on: NCI-H358; test: Antiproliferative activity against human NCI-H358 cells by resazurin assay; assay type: functional
# [31] = Plasma protein binding in dog incubated for 6 hrs by LC-MS/MS based rapid equlibrium dialysis method; assay type: ADME, cell-free, Canis lupus familiaris; conditions: read-out: PPB (converted)
# [32] = Tmax in Beagle dog at 15 mg/kg, po measured upto 24 hrs by LC-MS/MS method; assay type: ADME, organism-based, Canis lupus familiaris; conditions: in vivo
# [33] = AUC in human MIA PaCa-2 cells xenografted mouse at 30 mg/kg, po; assay type: ADME, organism-based; parameters: dose 30 mg/kg, route po; conditions: in vivo
# [34] = Apparent permeability across apical to basolateral side in MDCK-MDR1 cells at 10 uM after 2 hrs by LC-MS/MS analysis; assay type: ADME, cell-based, Canis lupus familiaris; conditions: dog
# [35] = molecular target: Voltage-dependent L-type calcium channel subunit alpha-1C (Homo sapiens, UniProt Q13936); test: Inhibition of Cav1.2 (unknown origin)
# [36] = tested on: GTPase KRas (Homo sapiens), P01116 [G12C]; test: In vivo target occupancy at KRAS G12C mutant in human MIA PaCa-2 cells xenografted mouse assessed as decrease in free KRAS G12C level at 30 mg/kg, po after 24 hrs; assay type: functional, organism-based
# [37] = Cmax in human MIA PaCa-2 cells xenografted mouse at 30 mg/kg, po; assay type: ADME, organism-based; parameters: dose 30 mg/kg, route po; conditions: in vivo
# [38] = molecular target: Voltage-gated inwardly rectifying potassium channel KCNH2 (Homo sapiens, UniProt Q12809); test: Inhibition of human ERG by manual patch clamp method; assay type: toxicity
# [39] = tested on: GTPase KRas (Homo sapiens), P01116 [G12C]; test: In vivo target occupancy at KRAS G12C mutant in human MIA PaCa-2 cells xenografted mouse assessed as decrease in free KRAS G12C level at 30 mg/kg, po after 3 hrs; assay type: functional, organism-based
# [40] = molecular target: Cav1.2 (Homo sapiens, UniProt Q13936); test: Inhibition of Cav1.2 (unknown origin) at 50 uM relative to control
# [41] = Plasma protein binding in human incubated for 6 hrs by LC-MS/MS based rapid equlibrium dialysis method; assay type: ADME, cell-free; conditions: read-out: PPB (converted)
# [42] = Volume of distribution at steady state in mouse at 1 mg/kg, iv measured upto 24 hrs by LC-MS/MS method; assay type: ADME, organism-based; conditions: in vivo, read-out: Vdss
# [43] = Tmax in mouse at 30 mg/kg, po measured upto 24 hrs by LC-MS/MS method; assay type: ADME, organism-based; conditions: in vivo
# [44] = Tmax in mouse xenografted with human MIA PaCa-2 cells at 3 to 30 mg/kg, po; assay type: ADME, organism-based; conditions: in vivo, dose 3-30 mg/kg
# [45] = tested on: GTPase KRas (Homo sapiens), P01116 [G12C]; test: In vivo target occupancy at KRAS G12C mutant in human MIA PaCa-2 cells xenografted mouse assessed as decrease in […] expression at 30 mg/kg, po after 6 hrs; assay type: functional, organism-based
# [46] = molecular target: Nav1.5 (Homo sapiens, UniProt Q14524); test: Inhibition of Nav1.5 (unknown origin) at 50 uM relative to control
# [47] = Aqueous solubility of compound in pH 4; assay type: physicochemical; conditions: aqueous medium
# [48] = tested on: GTPase KRas (Homo sapiens), P01116 [G12C]; test: In vivo target occupancy at KRAS G12C mutant in human MIA PaCa-2 cells xenografted mouse assessed as decrease in […] expression at 30 mg/kg, po after 3 hrs; assay type: functional, organism-based
# [49] = tested on: GTPase KRas (Homo sapiens), P01116 [G12C]; test: In vivo target occupancy at KRAS G12C mutant in human MIA PaCa-2 cells xenografted mouse assessed as decrease in free KRAS G12C level at 30 mg/kg, po after 6 hrs; assay type: functional, organism-based
# [50] = molecular target: T2, Cytochrome P450 3A4; test: Inhibition of CYP3A4 in human liver microsomes using testosterone as substrate incubated for 10 to 30 mins in presence of NADPH by LC-MS/MS method; assay type: ADME, Microsome
# [51] = Solubility of compound in FaSSIF; assay type: ADME
smiles,measurement,setting,value
C=CC(=O)N1CC2(CC(n3nc(-c4ccccc4)c(-c4c(Cl)c(C)cc5[nH]ncc45)c3C)C2)C1,concentration at 40 min,[1],4000 nM
same,Occ,[2],20%
same,IC50,[3],0.02 µM
same,solubility,[4],10 µM
same,half-life,[5],2.5 h
same,Occ,[6],40%
same,logD,[7],4.9
same,Ratio,[8],60 mM⁻¹ s⁻¹
C=CC(=O)N1CC2(CC(n3nc(-c4ccc5c(cnn5C)c4)c(-c4c(Cl)c(C)cc5[nH]ncc45)c3C)C2)C1 [OPNURASIB],fraction unbound at 6 h,[9],0.016
same,IC50,[10],> 20 µM
same,Activity,[11],-34%
same,Vd,[12],4.2 L/kg
same,solubility,[13],250 µg/mL
same,Activity,[14],-87%
same,AUC(0-inf),[15],10 µM·h
same,IC50,[3],0.02 µM
same,Occ,[16],100%
same,IC50,[17],> 10 µM
same,AUC(0-inf),[18],6 µM·h
same,GI50,[19],4.4 µM
same,Activity,[20],Non-Toxic
same,Cmax,[21],1100 nM
same,AUC/dose,[22],0.65 µM·h
same,Cmax,[23],2000 nM
same,solubility,[4],10 µM
same,TDI,[24],Not Active
same,fraction unbound at 6 h,[25],0.024
same,Papp,[26],6.78 ×10⁻⁶ cm/s
same,AUC/dose,[27],0.2 µM·h
same,IC50,[28],3.74 µM
same,TDI,[29],Not Active
same,GI50,[30],0.018 µM
same,fraction unbound at 6 h,[31],0.031
same,Tmax,[32],5 h
same,AUC,[33],8.9 µM·h
same,"Papp A→B at 2 h, 10 µM",[34],5 ×10⁻⁶ cm/s
same,IC50,[35],> 10 µM
same,Occ,[36],23%
same,Cmax,[37],1700 nM
same,IC50,[38],> 4.7 µM
same,Occ,[39],3%
same,inhibition at 50 µM,[40],8%
same,fraction unbound at 6 h,[41],0.007
same,Vd,[42],5.9 L/kg
same,logD,[7],4.6
same,Tmax,[43],0.5 h
same,Tmax,[44],1 h
same,Occ,[45],37%
same,inhibition at 50 µM,[46],12%
same,solubility,[47],10 µM
same,Occ,[48],27%
same,Occ,[49],2%
same,IC50,[50],6.23 µM
same,solubility,[51],6 µg/mL
C=CC(=O)N1CC2(CC(n3nc(C4CCCCC4)c(-c4c(C)ccc5[nH]ncc45)c3C)C2)C1,Ratio,[8],0.3 mM⁻¹ s⁻¹
